Columns and labels:
[1] = 101 kPa, Liquid, Vibrating tube method
[2] = xn = mol fraction of the nth substance listed; conditions: 101 kPa, Liquid, Vibrating tube method

CC(Cl)(Cl)Cl [1,1,1-trichloroethane]
[1]
Conditions | mass density [kg/m3]
298.15 K | 1328.24
308.15 K | 1311.45
318.15 K | 1294.47

CC(Cl)(Cl)Cl [1,1,1-trichloroethane] + C[N+](=O)[O-]
mass density [kg/m3], [2]
Conditions | x1 = 0.0921 | x1 = 0.1727 | x1 = 0.2614 | x1 = 0.3951 | x1 = 0.4862 | x1 = 0.5904 | x1 = 0.7066 | x1 = 0.8358 | x1 = 0.9012 | x1 = 1
298.15 K | 1161.87 | 1185.48 | 1208.35 | 1238.06 | 1255.6 | 1273.47 | 1291.18 | 1308.67 | 1316.72 | 1328.24
308.15 K | 1147.77 | 1170.98 | 1193.5 | 1222.71 | 1239.96 | 1257.52 | 1274.93 | 1292.14 | 1300.08 | 1311.45
318.15 K | 1133.54 | 1156.35 | 1178.49 | 1207.19 | 1224.13 | 1241.39 | 1258.49 | 1275.42 | 1283.24 | 1294.47

ClC(Cl)C(Cl)Cl [1,1,2,2-tetrachloroethane]
[1]
Conditions | mass density [kg/m3]
298.15 K | 1588.23
308.15 K | 1572.66
318.15 K | 1557.04

ClC(Cl)C(Cl)Cl [1,1,2,2-tetrachloroethane] + C[N+](=O)[O-]
mass density [kg/m3], [2]
Conditions | x1 = 0.0711 | x1 = 0.1888 | x1 = 0.2563 | x1 = 0.3464 | x1 = 0.4341 | x1 = 0.5431 | x1 = 0.6654 | x1 = 0.8211 | x1 = 0.9285 | x1 = 1
298.15 K | 1191.08 | 1275.68 | 1318 | 1366.65 | 1408.57 | 1454.03 | 1497.84 | 1544.6 | 1571.92 | 1588.23
308.15 K | 1177.12 | 1261.26 | 1303.41 | 1351.85 | 1393.61 | 1438.91 | 1482.56 | 1529.17 | 1556.4 | 1572.66
318.15 K | 1163.03 | 1246.76 | 1288.69 | 1336.94 | 1378.54 | 1423.68 | 1467.2 | 1513.67 | 1540.82 | 1557.04

ClCCCl [1,2-dichloroethane]
[1]
Conditions | mass density [kg/m3]
298.15 K | 1245.59
308.15 K | 1230.96
318.15 K | 1216.16

ClCCCl [1,2-dichloroethane] + C[N+](=O)[O-]
[2], x1 = 1
Conditions | mass density [kg/m3]
298.15 K | 1245.59
308.15 K | 1230.96
318.15 K | 1216.16

ClCCCCl [1,3-dichloropropane]
[1]
Conditions | mass density [kg/m3]
298.15 K | 1180.1
308.15 K | 1167.7
318.15 K | 1155.21

ClCCCCl [1,3-dichloropropane] + C[N+](=O)[O-]
mass density [kg/m3], [2]
Conditions | x1 = 0.0878 | x1 = 0.1939 | x1 = 0.2938 | x1 = 0.3998 | x1 = 0.5028 | x1 = 0.6154 | x1 = 0.7207 | x1 = 0.8326 | x1 = 0.9404 | x1 = 1
298.15 K | 1135.58 | 1141.34 | 1146.79 | 1152.41 | 1157.65 | 1163.15 | 1168.07 | 1173.04 | 1177.55 | 1180.1
308.15 K | 1122.12 | 1128.05 | 1133.64 | 1139.39 | 1144.76 | 1150.38 | 1155.41 | 1160.49 | 1165.1 | 1167.7
318.15 K | 1108.53 | 1114.63 | 1120.37 | 1126.26 | 1131.76 | 1137.51 | 1142.65 | 1147.84 | 1152.56 | 1155.21

ClCCCCCl [1,4-dichlorobutane]
[1]
Conditions | mass density [kg/m3]
298.15 K | 1133.94
308.15 K | 1123
318.15 K | 1112

ClCCCCCl [1,4-dichlorobutane] + C[N+](=O)[O-]
mass density [kg/m3], [2]
Conditions | x1 = 0.0825 | x1 = 0.1759 | x1 = 0.2825 | x1 = 0.3815 | x1 = 0.4815 | x1 = 0.5911 | x1 = 0.6898 | x1 = 0.8208 | x1 = 0.9262 | x1 = 1
298.15 K | 1128.17 | 1126.77 | 1126.33 | 1126.62 | 1127.33 | 1128.46 | 1129.64 | 1131.38 | 1132.86 | 1133.94
308.15 K | 1114.98 | 1113.92 | 1113.86 | 1114.44 | 1115.42 | 1116.8 | 1118.18 | 1120.16 | 1121.81 | 1123
318.15 K | 1101.65 | 1100.97 | 1101.28 | 1102.17 | 1103.42 | 1105.05 | 1106.65 | 1108.88 | 1110.7 | 1112

CCCCCl [1-chlorobutane]
[1]
Conditions | mass density [kg/m3]
298.15 K | 881.17
308.15 K | 870
318.15 K | 858.67

CCCCCl [1-chlorobutane] + C[N+](=O)[O-]
[2], x1 = 1
Conditions | mass density [kg/m3]
298.15 K | 881.17
308.15 K | 870
318.15 K | 858.67
